The values that follow come from US8518958B2, “Pyrido [2,3-D] pyrimidines and their use as kinase inhibitors” (Forma Therapeutics, Inc., priority 2006, dated 2013).

Assay [1] deals with HT-29 tumor cells. Kind of assay: Anti-proliferative activity, SRB assay. Conditions: Homo sapiens, HT-29, 72 h, 72 hours exposure, read-out: CELLULAR IC50 HT-29. The class given is cell-based, human. The method, then:
We observed the surprising finding that compounds of the invention were useful in inhibiting proliferation of HT-29 tumor cells (see Table 3).
3,000-15,000 cells/well were exposed to the test compounds at various concentrations appropriate to determine an IC50, for 72 hours, and cell proliferation was measured using the SRB assay according to Shekan et al (J Natl Cancer Inst (1990) 82, 1107-112) in order to estimate the IC50 values shown in Table 3. Briefly, cells were plated in 96 well dishes 24 hours prior to compound addition. The assay was terminated with the addition of cold TCA to a final concentration of 10% and the plates were incubated for one hour at 4° C. The plates were then washed 5 times with water and 100 μl of a Sulforhodamine B solution (4%) was added to each well. The plate was then incubated for 10 minutes at room temperature before removal of unbound dye by washing with 1% acetic acid. The bound dye was solubilized with 10 mM Trizma base and the absorbance read at OD570. Inhibitory activity of the compounds was calculated as % inhibition of cell proliferation compared to cells treated with the solvent (DMSO).
A general note: Sulforhodamine B stains cellular protein and so reports cell mass.

Assay [2] has as its target B-Raf delta1-415 (Homo sapiens, UniProt P15056). Kind of assay: B-Raf kinase inhibition (MAPH filter plate, 33P-ATP, MEK1 substrate). The settings on record: read-out: Biochemical IC50 B-Raf. The text has this:
We characterized the in vitro inhibitory activity against protein kinases of compounds of the present invention by determining their IC50 values (see Table 2).
Kinase: B-Raf delta1-415 (e.g., Upstate Cat. No. 14-530)
Reaction Temperature: room temperature
Assay Plate: 96 well U bottom plate (Greiner, 650161)
MultiScreen-PH Plate: 96 well MAPH Filter Plates (Millipore, MAPHNOB50)
Filter Washing Solution: 0.75% H3PO4
Szintilation Liquid: Supermix Liquid Szintillator (PerkinElmer, 1200-439)
Negative Control (C−): 100 mM EDTA, no Inhibitor
Positive Control (C+): no Inhibitor
Reaction Buffer: 20 mM Mops, pH 7.0 • 10 mM MgCl2 • 0.4 mM MnCl2 • 100 mM NaCl • 1 mM DTT • 0.01% NP40
Final Assay Concentrations:
Kinase: Kinase conc. yielding 50% substrate turnover as determined in titration experiment.
Adenosine 5′-[γ-^33P]triphosphate: 12.5 μCi/ml (Amersham Biosciences, BF1000)
Pipetting Sequence: • 1) Add 10 μl 4-fold concentrated substrate in 3-fold concentrated reaction buffer to each well of assay plate • 2) Add 10 μl 4-fold concentrated inhibitor in 4% DMSO in H2O to each well except to C− and C+ wells (starting point: final inhibitor concentration 10 μM; IC50 determination based on dilution series) • 3) Add 10 μl 4% DMSO in H2O to C− and C+ wells • 4) Add 10 μl 500 mM EDTA in H2O to C− wells • 5) Add 10 μl 50 μCi/ml adenosine 5′-[γ-^33P]triphosphate in H2O+4-fold cold ATP to each well • 6) Add 10 μl 4-fold concentrated kinase in reaction buffer to each well • 7) Incubate 1 hr at room temperature • 8) Add 10 μl 50 mM EDTA in H2O to each well except to C− wells • 9) Prepare MAPH plates by adding 200 μl 0.75% H3PO4 to each well • 10) Exhaust 0.75% H3PO4 using Millipore vacuum station • 11) Add 60 μl 0.75% H3PO4 to each well of MAPH filter plate • 12) Transfer 30 μl sample per well from assay plate to corresponding well of MAPH filter plate • 13) Incubate 30 min at room temperature • 14) Wash each well of MAPH filter plates 3× with 200 μl 0.75% H3PO4 using Millipore vacuum station • 15) Add 20 μl scintillation liquid to each well of MAPH filter plate • 16) Seal MAPH filter plate • 17) Store MAPH filter plate 30 min in darkness • 18) Quantify radioactivity using scintillation counter (MicroBeta, Perkin-Elmer)

A value given as a limit tells only on which side of the number the result lay.

B-Raf delta1-415, sequence (P15056 416-766): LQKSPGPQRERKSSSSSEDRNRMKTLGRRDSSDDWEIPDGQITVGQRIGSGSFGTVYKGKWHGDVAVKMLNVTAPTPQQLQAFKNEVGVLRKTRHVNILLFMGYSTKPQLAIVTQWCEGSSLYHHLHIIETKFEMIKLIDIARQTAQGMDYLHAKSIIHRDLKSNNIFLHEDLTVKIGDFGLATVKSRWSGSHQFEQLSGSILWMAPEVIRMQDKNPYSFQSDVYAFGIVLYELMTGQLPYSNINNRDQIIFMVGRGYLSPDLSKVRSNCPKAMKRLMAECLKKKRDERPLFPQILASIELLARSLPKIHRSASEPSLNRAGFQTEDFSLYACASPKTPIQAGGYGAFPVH

As usually defined, the IC50 is the concentration needed to halve the response being measured. In the case of `C/C=C/C(=O)Nc1ncc2cc(-c3c(C)cccc3C)c(=O)n(OC)c2n1` [Compound 96, 2-But-2-enoylamino-6-(2,6-dimethylphenyl)-8-methoxy-pyrido[2,3-d]pyrimidin-7-one], the IC50 in assay [1] is more than 10000 nM; in assay [2] it was more than 1000 nM.

As to `COn1c(=O)c(-c2c(Cl)cccc2Cl)cc2cnc(Nc3ccc(CC#N)cc3)nc21` [Compound 97, 2-(4-cyanomethylphenyl)-amino-6-(2,6-dichlorophenyl)-8-methoxy-pyrido[2,3-d]pyrimidin-7-one], the IC50 in assay [1] is less than 1000 nM; in assay [2], less than 100 nM.

On to `COn1c(=O)c(-c2c(Cl)cccc2Cl)cc2cnc(Nc3ccc(N4CCOCC4)cc3)nc21` [Compound 98, 6-(2,6-Dichlorophenyl)-8-methoxy-2-(4-morpholinophenyl)-amino-pyrido[2,3-d]pyrimidin-7-one], for which the results for the IC50 in assay [1] and in assay [2] were less than 1000 nM and less than 100 nM, respectively.

On to `COCCOn1c(=O)c(-c2c(Cl)cccc2Cl)cc2cnc(Nc3cc(C(=O)NCCN4CCCC4)n(C)c3)nc21` [Compound 99, 6-(2,6-Dichlorophenyl)-8-(2-methoxyethyl)oxy-2-(5-(2-pyrrolidinoethyl)aminocarbonyl-1-methyl-pyrrol-3-yl)-amino-pyrido[2,3-d]pyrimidin-7-one], for which the IC50 in assay [1] was less than 1000 nM; in assay [2], less than 500 nM.

Regarding `COn1c(=O)c(-c2c(Cl)cccc2Cl)cc2cnc(Nc3ccc(CN4CCOCC4)cc3)nc21` [Compound 100, 6-(2,6-Dichlorophenyl)-8-methoxy-2-(4-morpholinomethylphenyl)-amino-pyrido[2,3-d]pyrimidin-7-one], the values for the IC50 in assay [1] and in assay [2] were less than 1000 nM and less than 500 nM, respectively.

Regarding `COn1c(=O)c(-c2c(Cl)cccc2Cl)cc2cnc(Nc3ccc(CN4CCCC4)cc3)nc21` [Compound 101, 6-(2,6-Dichlorophenyl)-8-methoxy-2-(4-pyrrolidinomethylphenyl)-amino-pyrido[2,3-d]pyrimidin-7-one], the half-maximal inhibitory concentration (IC50) in assay [1] is less than 1000 nM; in assay [2] it was less than 100 nM.

Consider `COn1c(=O)c(-c2c(Cl)cccc2Cl)cc2cnc(NCCO)nc21` [Compound 102, 6-(2,6-Dichlorophenyl)-2-hydroxyethylamino-8-methoxy-pyrido[2,3-d]pyrimidin-7-one], for which the IC50 was less than 10000 nM in assay [1] and less than 500 nM in assay [2].

On to `Cn1cc(Nc2ncc3cc(-c4c(Cl)cccc4Cl)c(=O)n(OC[C@@H](O)CO)c3n2)cc1C(=O)NCCN1CCCC1` [Compound 103, 6-(2,6-Dichlorophenyl)-8-(2-(S)-2,3-dihydroxypropyl)oxy-2-(5-(2-pyrrolidinoethyl)aminocarbonyl-1-methyl-pyrrol-3-yl)-amino-pyrido[2,3-d]pyrimidin-7-one], for which the figures for the IC50 in assay [1] and in assay [2] were less than 1000 nM and less than 500 nM, respectively.

Turning to `COn1c(=O)c(-c2c(Cl)cccc2Cl)cc2cnc(Nc3ccc(Cn4cncn4)cc3)nc21` [Compound 104, 6-(2,6-Dichlorophenyl)-8-methoxy-2-(4-(1,2,4-triazol-1-yl)methylphenyl)-amino-pyrido[2,3-d]pyrimidin-7-one], the IC50 in assay [1] is less than 1000 nM; in assay [2] it was less than 500 nM.

Turning to `COn1c(=O)c(-c2c(Cl)cccc2Cl)cc2cnc(Nc3ccc(N4CCCC4)cc3)nc21` [Compound 105, 6-(2,6-Dichlorophenyl)-8-methoxy-2-(4-pyrrolidinophenyl)-amino-pyrido[2,3-d]pyrimidin-7-one], the IC50 in assay [1] is less than 10000 nM; in assay [2], less than 500 nM.

`COCCOn1c(=O)c(-c2cc(NC(=O)c3ccccc3)ccc2Cl)cc2cnc(Nc3ccc(N4CCN(C)CC4)cc3)nc21` [Compound 106, 6-(5-Benzoylamino-2-chloro-phenyl)-8-(2-methoxyethyl)oxy-2-(4-(4-methylpiperazino)-phenylamino)-pyrido[2,3-d]pyrimidin-7-one]: the IC50 in assay [1] is less than 1000 nM; in assay [2] it was less than 500 nM.

`COCCOn1c(=O)c(-c2cc(NC(=O)c3cccc(C(F)(F)F)c3)ccc2Cl)cc2cnc(Nc3ccc(N4CCN(C)CC4)cc3)nc21` [Compound 107, 8-(2-Methoxyethyl)oxy-2-(4-(4-methylpiperazino)-6-(5-(3-trifluoromethylbenzoyl)amino-2-chloro-phenyl)-phenylamino)-pyrido[2,3-d]pyrimidin-7-one]: the IC50 is less than 1000 nM in assay [1] and less than 100 nM in assay [2].

`Cn1cc(Nc2ncc3cc(-c4c(Cl)cccc4Cl)c(=O)n(OC[C@H](O)CO)c3n2)cc1C(=O)NCCN1CCCC1` [Compound 108, 6-(2,6-Dichlorophenyl)-8-(2-(R)-2,3-dihydroxypropyl)oxy-2-(5-(2-pyrrolidinoethyl)aminocarbonyl-1-methyl-pyrrol-3-yl)-amino-pyrido[2,3-d]pyrimidin-7-one]: the IC50 in assay [1] is less than 1000 nM; in assay [2], less than 500 nM.

Regarding `COn1c(=O)c(-c2c(Cl)cccc2Cl)cc2cnc(NCCOC(=O)[C@@H](N)C(C)C)nc21` [Compound 109, 2-((2-(S)-2-Amino-3-methylbutanoyloxy)ethyl)-amino-6-(2,6-dichlorophenyl)-8-methoxy-pyrido[2,3-d]pyrimidin-7-one], the IC50 in assay [1] is less than 10000 nM; in assay [2] it was less than 500 nM.

As to `COn1c(=O)c(-c2c(Cl)cccc2Cl)cc2cnc(Nc3ccc(N4CCCC4=O)cc3)nc21` [Compound 110, 6-(2,6-Dichlorophenyl)-8-methoxy-2-(4-(2-oxopyrrolidino)phenyl)-amino-pyrido[2,3-d]pyrimidin-7-one], the values for the IC50 in assay [1] and in assay [2] were less than 1000 nM and less than 100 nM, respectively.

On to `COn1c(=O)c(-c2c(Cl)cccc2Cl)cc2cnc(Nc3ccc(NS(C)(=O)=O)cc3)nc21` [Compound 111, 6-(2,6-Dichlorophenyl)-8-methoxy-2-(4-methylsulfonylaminophenyl)-amino-pyrido[2,3-d]pyrimidin-7-one], for which the IC50 in assay [1] was less than 1000 nM; in assay [2], less than 100 nM.

`COn1c(=O)c(-c2c(Cl)cccc2Cl)cc2cnc(Nc3cc(C(=O)NCCOC(=O)[C@@H](N)C(C)C)n(C)c3)nc21` [Compound 112, 2-(5-(2-(2-(S)-2-Amino-3-methylbutanoyloxy)ethyl)aminocarbonyl-1-methyl-pyrrol-3-yl)-amino-6-(2,6-dichlorophenyl)-8-methoxy-pyrido[2,3-d]pyrimidin-7-one]: the figures for the IC50 in assay [1] and in assay [2] were less than 1000 nM and less than 500 nM, respectively.

With `COn1c(=O)c(-c2c(Cl)cccc2Cl)cc2cnc(NC3CC3)nc21` [Compound 113, 2-Cyclopropylamino-6-(2,6-dichlorophenyl)-8-methoxy-pyrido[2,3-d]pyrimidin-7-one], the figures for the IC50 in assay [1] and in assay [2] were less than 10000 nM and less than 500 nM, respectively.

For the molecule `COn1c(=O)c(-c2c(C)cccc2C)cc2cnc(Nc3cccnc3)nc21` [Compound 114, 6-(2,6-Dimethylphenyl)-8-methoxy-2-pyrid-3-ylamino-pyrido[2,3-d]pyrimidin-7-one], the IC50 in assay [1] was less than 10000 nM; in assay [2], less than 100 nM.

As to `COn1c(=O)c(-c2c(Cl)cccc2Cl)cc2cnc(Nc3ccc(CC(=O)NCCN4CCCC4)cc3)nc21` [Compound 115, 6-(2,6-Dichlorophenyl)-8-methoxy-2-(4-(2-pyrrolidinoethylaminocarbon-ylmethyl)phenyl)-amino-pyrido[2,3-d]pyrimidin-7-one], the IC50 in assay [1] was less than 1000 nM; in assay [2] it was less than 500 nM.
